ChEMBL document CHEMBL1133765, “QSAR model for drug human oral bioavailability” (J Med Chem, 2000)

Tests used:
[1] = human, in vivo, po
[2] = octanol/water
[3] = octanol/water; remark: listed apart in the source
[4] = octanol/water; remark: listed apart in the source
clinical [5] = conditions: human, in vivo, po
[6] = Oral bioavailability in human; format: ADME, organism-based; conditions: in vivo
physchem [7] = conditions: octanol/water, pH 6.5, logD
physchem [8] = experiment: physchem
clinical [9] = conditions: human, in vivo, po; remark: listed apart in the source
[10] = octanol/water; remark: listed apart in the source
clinical [11] = conditions: human, in vivo, po, F
[12] = Partition coefficient (logD6.5); format: physicochemical; conditions: octanol/water, pH 6.5

Nc1ccn([C@H]2CC[C@@H](CO)O2)c(=O)n1 (stereo in doubt; 1) [ZALCITABINE]
F [1]: < 20%
logD [2]: 3.2

OCCN1CCN(CCCN2c3ccccc3Sc3ccc(Cl)cc32)CC1 [PERPHENAZINE]
delta logD [3]: -0.77
logD [4]: 2.88
bioavailability (clinical [5]): 79%

O=C1C(O)=C([C@H]2CC[C@H](c3ccc(Cl)cc3)CC2)C(=O)c2ccccc21 [ATOVAQUONE]
bioavailability [6]: 49%
logD (physchem [7]): 3.96

CC[C@@H](CO)NCCN[C@@H](CC)CO [ETHAMBUTOL]
delta logD [3]: -0.9
logD [4]: -4.02
bioavailability (clinical [5]): 79%
pKa (physchem [8]): 9.5

C=CCOc1ccccc1OCC(O)CNC(C)C (centres undefined) [OXPRENOLOL]
delta logD [3]: -0.9
logD ([4]; pH 6.5): -0.72
bioavailability (clinical [9]): 49%
pKa (physchem [8]): 9.3

CN1CCN(CC(=O)N2c3ccccc3C(=O)Nc3cccnc32)CC1 [PIRENZEPINE]
delta logD [3]: -0.83
logD [4]: -1.51
bioavailability (clinical [9]): 49%
pKa (physchem [8]): 8.1

CC(C)NCC(O)COc1ccc(CCOCC2CC2)cc1 (centres undefined) [BETAXOLOL]
delta logD [10]: -0.9
logD ([2]; pH 6.5): -0.07
bioavailability (clinical [11]): > 80%
pKa (physchem [8]): 9.4

CO/C(O)=C1\C(C)=NC(C)=C(C(=O)OC(C)C)C1c1cccc2nonc12 (centres undefined)
logD [12]: 1.72
delta logD [3]: 0
bioavailability (clinical [11]): ≤ 20%

Nc1ccn([C@H]2CC[C@@H](CO)O2)c(=O)n1 (stereo in doubt; 232) [ZALCITABINE]
F [1]: > 80%
delta logD [10]: 0

CC(C)(C)NCC(O)COc1cccc2c1CC(O)C(O)C2 (centres undefined) [NADOLOL]
delta logD [3]: -0.9
logD [4]: -2.46
bioavailability (clinical [9]): 49%
pKa (physchem [8]): 9.7

CN(Cc1cnc2nc(N)nc(N)c2n1)c1ccc(C(=O)N[C@@H](CCC(=O)O)C(=O)O)cc1 [METHOTREXATE]
delta logD [3]: 0.9
logD [4]: -4.55
bioavailability (clinical [5]): 79%

O=C(c1ccc(OCCN2CCCCC2)cc1)c1c(-c2ccc(O)cc2)sc2cc(O)ccc12 [RALOXIFENE]
delta logD [10]: -0.9
logD ([2]; pH 6.5): 1.08
bioavailability (clinical [11]): < 20%
pKa (physchem [8]): 9
